Measurements: US20260256909A1, “COMBINATION OF A BTN3A ACTIVATING ANTIBODY, A BCL2 INHIBITOR AND HYPOMETHYLATING AGENT FOR USE IN TREATING CANCER” (Imcheck Therapeutics, priority 2022, published 2026)

What was measured:
Vγ9Vδ2 T cells = assay: Survival of Vγ9Vδ2 T cells in HD-PBMC (Caspase3/7 and dead cell marker, flow cytometry); type: cell-based, human; details: for reduced survival of Vγ9Vδ2 T cells compared to no Venetoclax condition: simultaneous treatment with ICT01 1 μg/mL
Experimental: The effect of ICT01 on the survival of Vγ9Vδ2 T cells upon treatment with Bcl-2 family member inhibitors was assessed in Peripheral Blood Mononuclear Cells from Healthy Donors (HD-PBMC) using the apoptotic marker Caspase3/7 and a dead cell marker in flow cytometry analysis.
Peripheral Blood Mononuclear Cells (PBMC) were isolated by Ficoll density gradient centrifugation of peripheral blood (EDTA-buffy coats) from healthy donors (HD, n=4-6), cultured in PBMC medium (RPMI 1640 Medium supplemented with 10% Fetal Bovine Serum (FBS), 1% Penicillin/Streptomycin and 1 mM Sodium Pyruvate) and treated with ICT01 or its isotype control (hIgG1S) used at 1 μg/mL in the presence or absence of increasing concentrations of Venetoclax (0-0.1 μM), 5-Azacytidine (0-0.4 μM) or the combination, or ABT-737 (0-1.875 μM), Navitoclax (0-1.875 μM) or MIK665 (0-1.875 μM). Cells were harvested on day 2, centrifuged at 1800 rpm for 5 minutes and then incubated 10 minutes at room temperature (RT) with 25 μl of FcR blocking reagent (Miltenyi Biotec) before adding 25 μL of the following antibody mix prepared in PBS+2% FBS+2 mM EDTA (FACS buffer): anti-CD4-BUV395, CD56-BV421, Vd2-PE, CD3-PE-CF594 and CD8-A700 antibodies for the identification of immune subsets, anti-CD25-BV650 and CD69-APC antibodies were added to monitor activation status of Vγ9Vδ2 T cells, and a viability marker (LIVE/DEAD™ Fixable Dead Cell Stain) was added to distinguish live from dead cells. Cells were incubated 20 minutes at room temperature (RT) and washed 2 times with FACS buffer. A Caspase3/7 Green detection reagent (ThermoFisher) was added to determine apoptosis and cells were incubated for 30 minutes at RT before flow cytometry analysis.
In a similar experiment, freshly isolated PBMC were stimulated with ICT01 or its isotype control hIgG1S for 1 day prior to a 2 day-treatment with Venetoclax (FIG. 3a). The number of live Vγ9Vδ2 T cells was assessed by flow cytometry at the end of the incubation time.

KG1a AML cells = assay: Killing of KG1a AML cells in co-culture with HD-PBMC (flow cytometry); type: cell-based, human; details: for effect on Vγ9Vδ2 T cell killing activity compared to hIgG1S conditions: upon activation with ICT01, single agent, KG1a co-culture with HD-PBMC
Experimental: A) Sensitivity of KG1a cell line to Venetoclax, 5-Azacytidine or the combination. […] N=2 experiments. B) Mean±SEM relative number of Live KG1a AML cells monitored by flow cytometry after 3 days of co-culture with HD-PBMC (E:T ratio 25:1) treated with ICT01 (black) or its isotype control (hIgG1S, light grey) at 0.1 or 1 μg/mL. N=6, each dot represents one healthy donor. C) Schematic representation of treatment schedule for killing of KG1a AML cells by HD-PBMC. D) Relative number of Live KG1a AML cells (Mean±SEM) (left) and Frequency of Live KG1a AML cell relative to no Venetoclax or 5-Azacytidine treatment (Mean±SEM) (right) after 3 days of co-culture with HD-PBMC in presence of ICT01 (black) or its isotype control (hIgG1S, light grey) and treatment with Venetoclax, 5-Azacytidine or the combination. N=6, each dot represents one healthy donor, * p<0.05, Wilcoxon test.
KG1a cells were co-cultured with HD-PBMC at ratio 5:1 in presence of m20.1 or isotype control (0.1 μg/mL). After 6 hrs, indicated concentrations of Venetoclax, 5-Azacytidine or the combination were added to the culture. Relative number of live KG1a was monitored after 48 hrs by flow cytometry. […] N=6, each dot represents one healthy donor, * p<0.05, ** p<0.01, *** p<0.001, **** p<0.0001, 2 way ANOVA.
KG1a or MOLM14 AML cell lines were co-cultured with HD-PBMC at ratio 5:1 in presence of ICT01 or isotype control (0.1 μg/mL). After 6 hrs, indicated concentrations of ABT-737, Navitoclax or MIK665 were added to the culture. A) Relative numbers of live KG1a cells (Mean±SEM) after 2 days of co-culture with HD-PBMC in presence of ICT01 (black) or its isotype control hIgG1S (light grey) and treatment with indicated concentration of ABT-737. B) Relative numbers of live KG1a cells (Mean±SEM) after 2 days of co-culture with HD-PBMC in presence of ICT01 (black) or its isotype control hIgG1S (light grey) and treatment with indicated concentration of Navitoclax. C) Relative numbers of live MOLM14 cells (Mean±SEM) after 2 days of co-culture with HD-PBMC in presence of ICT01 (black) or its isotype control hIgG1S (light grey) and treatment with indicated concentration of MIK665. N=6 HD, each dot represents one healthy donor, * p<0.05, 2 way ANOVA.
The effect of Venetoclax and 5-Azacytidine on anti-BTN3A antibodies-induced killing of AML cell lines by Vγ9Vδ2 T cells was assessed by measuring the relative number of surviving target cells in a HD-PBMC-AML cell co-culture using flow cytometry.
Then, KG1a AML cells were stained with CellTrace CFSE Proliferation dye (ThermoFisher) to allow for specific detection by flow cytometry, counted, put into a co-culture with thawed HD-PBMC and treated with the anti-BTN3A mAbs ICT01 or m20.1 or their respective isotype controls (hIgG1S or mIgG1) in PBMC medium (RPMI 1640 Medium supplemented with 10% Fetal Bovine Serum (FBS) and 1 mM Sodium Pyruvate). On day one of culture, increasing concentrations of Venetoclax (0-0.4 μM), 5-Azacytidine (0-0.4 μM) or the combination were added. Cells were harvested on day 3 of co-culture, centrifuged at 1800 rpm for 5 minutes and then incubated 10 minutes at room temperature (RT) with 25 μl of FcR blocking reagent (Miltenyi Biotec) before adding 25 μL of the following antibody mix prepared in PBS+2% FBS+2 mM EDTA (FACS buffer): anti-CD56-BV421, CD19-BV421, CD14-BV785, Tyb-PE and CD3-AF700 antibodies for the identification of immune subsets, and a viability marker (LIVE/DEAD™ Fixable Dead Cell Stain) was added to distinguish live and dead cells. Cells were incubated 20 minutes at room temperature, washed once in FACS buffer and once in AnnexinV staining buffer. An AnnexinV-APC probe mixed with CountBright Absolute Counting Beads (Invitrogen) was added to determine apoptosis and relative cell numbers, followed by 15 minutes incubation at RT before flow cytometry analysis. […]

[1] = 0.01 μM Venetoclax, HD-PBMC, 48 h
[2] = 0.1 μM Venetoclax, HD-PBMC, 48 h

Row | Molecule | reduction of live cells (Vγ9Vδ2 T cells) compared to no Venetoclax condition (Vγ9Vδ2 T cells; [1]) | reduced survival of Vγ9Vδ2 T cells compared to no Venetoclax condition (Vγ9Vδ2 T cells; [1]) | reduction of live cells (Vγ9Vδ2 T cells) compared to no Venetoclax condition (Vγ9Vδ2 T cells; [2]) | reduced survival of Vγ9Vδ2 T cells compared to no Venetoclax condition (Vγ9Vδ2 T cells; [2]) | reduction of KG1a relative numbers (KG1a AML cells; hIgG1S-treatment conditions, highest concentration, co-culture with HD-PBMC, day 3) | reduction of KG1a relative numbers (KG1a AML cells; mIgG1 conditions, Venetoclax 0.1 μM alone or combined with 0.4 μM 5-Azacytidine, HD-PBMC ratio 5:1, 48 hrs) [%] | effect on Vγ9Vδ2 T cell killing activity compared to hIgG1S conditions (KG1a AML cells) | Venetoclax induced cell death of Vγ9Vδ2 T cells (Vγ9Vδ2 T cells; PBMC stimulated with ICT01 for 1 day prior to a 2 day-treatment with Venetoclax, vs hIgG1S) | average reduction of live KG1a cell numbers compared to hIgG1S conditions (KG1a AML cells; 3 days co-culture with HD-PBMC (E:T ratio 25:1), large variability within PBMC donors) | KG1a cell death as compared to control condition (KG1a AML cells; ICT01 0.1 μg/mL, HD-PBMC ratio 5:1, 2 days (FIG. 8a)) | effect on the survival of Vγ9Vδ2 T cells (Vγ9Vδ2 T cells; HD-PBMC, 48 h, 5-Azacytidine 0-0.4 μM) | effect on KG1a survival (KG1a AML cells; hIgG1S conditions, co-culture with HD-PBMC, day 3) | effect on KG1a survival (KG1a AML cells; mIgG1 conditions, HD-PBMC ratio 5:1, 48 hrs)
1 | CC1(C)CCC(CN2CCN(c3ccc(C(=O)NS(=O)(=O)c4ccc(NCC5CCOCC5)c([N+](=O)[O-])c4)c(Oc4cnc5[nH]ccc5c4)c3)CC2)=C(c2ccc(Cl)cc2)C1 [Venetoclax, 4-[4-[[2-(4-chlorophenyl)-4,4-dimethylcyclohexen-1-yl]methyl]piperazin-1-yl]-N-[3-nitro-4-(oxan-4-ylmethylamino)phenyl]sulfonyl-2-(1H-pyrrolo[2,3-b]pyridin-5-yloxy)benzamide] | ~ 29% | ~ 11% | ~ 49% | ~ 30% | ~ 28% | 41 | slight increasing effects |  |  |  |  |  | 
2 | ICT01: humanized BTN3A activating antibody of mAb 7.2, heavy chain SEQ ID NO: 4, light chain SEQ ID NO: 6, silent IgG1 L247F/L248E/P350S |  |  |  |  |  |  |  | significantly reduced | ~ 20% | ~ 21% |  |  | 
3 | Nc1ncn([C@@H]2O[C@H](CO)[C@@H](O)[C@H]2O)c(=O)n1 [5-Azacytidine, 4-amino-1-[(2R,3R,4S,5R)3,4-dihydroxy-5-(hydroxymethyl)oxolan-2-yl]-1,3,5-triazin-2-one] |  |  |  |  |  |  | slight increasing effects |  |  |  | no effect | no effect | no effect
